Earlier results on one compound are cited in patent publication US20240173460A1, “STORAGE SOLUTIONS FOR MAINTAINING OF AXONAL VIABILITY” (Board of Regents, The University of Texas System, priority 2022, published 2024).

With `[Cl-].[K+]` [Potassium Chloride], the solubility in water entry is reported as “freely soluble in water”.
